Test results: patent publication US7498330B2, “4-oxo-4,6,7,8-tetrahydro-pyrrolo[1,2-a]pyrazine-6-carboxamide compounds” (Les Laboratories Servier, priority 2004, dated 2009)
pIC50: −log10 of the molar value. Where a name gives a salt, the structure may show the parent alone.

Biological target: T1, human thrombin (Homo sapiens, UniProt P00734)
T1 construct: human thrombin (Sigma, specific activity 3230 UNIH/mg); purchased Sigma
Assay: Inhibition of human thrombin activity on human fibrinogen (fibrin formation, 405 nm)
Assay type: biochemical
Conditions: thrombin 0.7 nM, purified human fibrinogen, pre-incubation 20° C. 10 minutes, pH 7.4; read-out: IC50 (concentration of the compounds that inhibits 50% of the enzymatic activity of the thrombin)
Description: For in vitro evaluation of the inhibitory activity of the products of the invention on human thrombin (Sigma, specific activity 3230 UNIH/mg), purified human fibrinogen ([…], Stago) (Fg) was added to a given amount of thrombin (0.7 nM) that had previously been incubated with or without the inhibitor to be tested (20° C., 10 minutes).
Inhibitors, enzymes and substrates are diluted in the same buffer ([…] phosphate buffer, pH 7.4, containing 0.12 M sodium chloride and 0.05% bovine serum albumin) and then distributed on a polystyrene microtitre plate in a volume of 50 μl.
The fibrin formed by the thrombin is measured using a spectrophotometer at 405 nm after from 10 to 15 minutes' reaction at 20° C.
The table below gives in nM the concentration of the compounds that inhibits 50% of the enzymatic activity (IC50) of the thrombin compared with the control without product.

pIC50	Compound
7.55	O=C(NCc1ccccc1F)C1CCc2cnc(NCC(F)(F)c3cccc[n+]3[O-])c(=O)n21 (racemic) [Example 1, 3-{[2,2-Difluoro-2-(1-oxido-2-pyridyl)ethyl]amino}-N-(2-fluorobenzyl)4-oxo-4,6,7,8-tetrahydropyrrolo[1,2-a]pyrazine-6-carboxamide]
7.42	O=C(NCc1ccccc1Cl)C1CCc2cnc(NCC(F)(F)c3cccc[n+]3[O-])c(=O)n21 (racemic) [Example 8, 3-{[2,2-Difluoro-2-(1-oxido-2-pyridyl)ethyl]amino}-N-(2-chlorobenzyl)-4-oxo-4,6,7,8-tetrahydropyrrolo[1,2-a]pyrazine-6-carboxamide]
7.80	O=C(NCc1ccccc1F)[C@@H]1CCc2cnc(NCC(F)(F)c3cccc[n+]3[O-])c(=O)n21 [Example 3, (6S)-3-{[2,2-Difluoro-2-(1-oxido-2-pyridyl)ethyl]amino}-N-(2-fluorobenzyl)-4-oxo-4,6,7,8-tetrahydropyrrolo[1,2-a]pyrazine-6-carboxamide]
8.85	O=C(COc1ccccc1CNC(=O)C1CCc2cnc(NCC(F)(F)c3cccc[n+]3[O-])c(=O)n21)NCCc1ccccn1 (stereo not shown) [Example 15, 3-{[2,2-Difluoro-2-(1-oxido-2-pyridyl)ethyl]amino}4-oxo-N-[2-(2-oxo-2-{[2-(2-pyridyl)ethyl]amino}ethoxy)benzyl]-4,6,7,8-tetrahydropyrrolo[1,2-a]pyrazine-6-carboxamide hydrochloride]
7.96	O=C(NCc1c(F)ccc(F)c1F)[C@@H]1CCc2cnc(NCC(F)(F)c3cccc[n+]3[O-])c(=O)n21 [Example 21, (6S)-3-{[2,2-Difluoro-2-(1-oxido-2-pyridyl)ethyl]amino}-N-(2,3,6-trifluorobenzyl)-4-oxo-4,6,7,8-tetrahydropyrrolo[1,2-a]pyrazine-6-carboxamide]
7.22	O=C(NCc1cccs1)[C@@H]1CCc2cnc(NCC(F)(F)c3cccc[n+]3[O-])c(=O)n21 [Example 24, (6S)-3-{[2,2-Difluoro-2-(1-oxido-2-pyridyl)ethyl]amino}-N-(2-thienylmethyl)-4-oxo-4,6,7,8-tetrahydropyrrolo[1,2-a]pyrazine-6-carboxamide hydrochloride]
8.08	O=C(NCc1ccccc1F)[C@@H]1CCc2cnc(NCC(F)(F)c3ccc4ccccc4[n+]3[O-])c(=O)n21 [Example 31, (6S)-3-{[2,2-Difluoro-2-(1-oxido 2-quinolinyl)ethyl]amino}-N-(2-fluorobenzyl)4-oxo-4,6,7,8-tetrahydropyrrolo[1,2-a]pyrazine 6-carboxamide]
